The source of these data is patent US8063065B2, “Azaindazole compounds as CCR1 receptor antagonists” (Boehringer Ingelheim International GmbH, priority 2008, dated 2011).

For this test, the target named is T1, CCR1 (Homo sapiens, UniProt P32246).
T1 sequence (P32246 1-355): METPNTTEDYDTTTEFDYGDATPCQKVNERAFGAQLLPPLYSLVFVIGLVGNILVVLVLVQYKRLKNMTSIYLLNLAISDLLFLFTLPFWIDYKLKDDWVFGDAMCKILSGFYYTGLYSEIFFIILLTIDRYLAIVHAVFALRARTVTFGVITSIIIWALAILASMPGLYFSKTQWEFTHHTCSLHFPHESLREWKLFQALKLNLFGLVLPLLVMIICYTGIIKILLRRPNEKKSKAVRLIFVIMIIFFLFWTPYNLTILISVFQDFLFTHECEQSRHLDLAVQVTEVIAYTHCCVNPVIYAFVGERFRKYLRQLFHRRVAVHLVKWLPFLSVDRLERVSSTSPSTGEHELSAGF
Description: Method A: calcium flux in CCR1 transfected cells (Fluo-4 NW, FLIPR TETRA), block of the CCR1/MIP-1α interaction. It counts as cell-based. The conditions noted are these: Method A: Fluo-4 NW, MIP-1 alpha at EC80. Here is the method:
Compounds are assessed for the ability to block the interaction of CCR1 and MIP-1α in a functional cellular assay measuring calcium flux in CCR1 transfected cells.
Method A: Non-adherent cells purchased from Chemicon Corporation (HTS005C), stably expressing recombinant CCR1 and G-alpha-16 are grown in RPMI 1640 medium (Mediatech 10-080-CM) supplemented with 10% heat-inactivated FBS, 0.4 mg/mL Geneticin and penicillin/streptomycin. On the day of the assay, the cells are transferred to a beaker and dye-loaded in bulk using a Fluo-4 NW Calcium Assay Kit with probenecid (Invitrogen F36205) at 0.8E6 cells/mL for 1 hour at room temperature. After 1 hour, they are seeded in a 384-well tissue culture-treated plate at a density of 20,000 cells/well. Appropriately diluted test compound is added to the well to achieve a top concentration of 3,000 nM (diluted 4-fold with 10 doses total). The final concentration of DMSO is 1%. The buffer is HBSS (Invitrogen 14025) with 20 mM HEPES at pH 7.4. The cells are allowed to incubate 1 hour in the dark at room temperature. The plates are transferred to the FLIPR TETRA where MIP-1 alpha in 1% BSA is added at the EC80 final concentration. Wells+/−MIP-1 alpha containing diluted DMSO instead of compound serve as the controls. Intracellular calcium flux is recorded on the FLIPR TETRA, using excitation at 470/495 nm and emission at 515/575 nm. Data are analyzed using Activity Base software.
(Calcium flux is commonly read through the fluorescence of an indicator in the cells.)

Consider `O=C1CN(S(=O)(=O)c2ccc(CNC(=O)c3cncc4c3cnn4-c3ccc(F)cc3)cc2)CCN1` [1-(4-Fluorophenyl)-1H-pyrazolo[3,4-c]pyridine-4-carboxylic acid 4-(3-oxo-piperazine-1-sulfonyl)-benzylamide], for which the IC50 was 3 nM.
In the case of `O=C(NCc1cncc(Br)c1)c1cncc2c1cnn2-c1ccc(F)cc1` [1-(4-Fluorophenyl)-1H-pyrazolo[3,4-c]pyridine-4-carboxylic acid (5-bromopyridin-3-ylmethyl)-amide], the half-maximal inhibitory concentration (IC50) was found to be 13 nM.
With `O=C(NCc1ccc(S(=O)(=O)N2CCC(O)CC2)cc1)c1cncc2c1cnn2-c1ccc(F)cc1` [1-(4-Fluorophenyl)-1H-pyrazolo[3,4-c]pyridine-4-carboxylic acid 4-(4-hydroxy-piperidine-1-sulfonyl)-benzylamide], the IC50 is 2 nM.
With `CC(=O)OCCN(C)S(=O)(=O)c1ccc(CNC(=O)c2cncc3c2cnn3-c2ccc(F)cc2)cc1` [Acetic acid 2-{[4-({[1-(4-fluorophenyl)-1H-pyrazolo[3,4-c]pyridine-4-carbonyl]-amino}-methyl)-benzenesulfonyl]-methyl-amino}-ethyl ester], the half-maximal inhibitory concentration (IC50) amounted to 2 nM.
Under `CS(=O)(=O)c1ccc(CNC(=O)c2cncc3c2cnn3-c2ccc(Cl)cc2)cn1` [1-(4-Chlorophenyl)-1H-pyrazolo[3,4-c]pyridine-4-carboxylic acid (6-methanesulfonyl-pyridin-3-ylmethyl)-amide] stands 34 nM.
To `CCCC(NC(=O)c1cncc2c1cnn2-c1ccc(F)cc1)c1ccnc(S(=O)(=O)CC)c1` (centres unmarked) [1-(4-Fluorophenyl)-1H-pyrazolo[3,4-c]pyridine-4-carboxylic acid [1-(2-ethanesulfonyl-pyridin-4-yl)-butyl]-amide] belongs 0.8 nM.
Under `C=CC[C@@H](NC(=O)c1cncc2c1cnn2-c1ccc(F)cc1)c1ccnc(S(C)(=O)=O)c1` [1-(4-Fluorophenyl)-1H-pyrazolo[3,4-c]pyridine-4-carboxylic acid [(R)-1-(2-methanesulfonyl-pyridin-4-yl)-but-3-enyl]-amide] stands 1 nM; under `CS(=O)(=O)c1cccc(CNC(=O)c2cncc3c2cnn3-c2ccc(Cl)cc2)c1` [1-(4-Chlorophenyl)-1H-pyrazolo[3,4-c]pyridine-4-carboxylic acid 3-methanesulfonyl-benzylamide], 7 nM.
`CN(C)S(=O)(=O)Nc1ccc(CNC(=O)c2cncc3c2cnn3-c2ccc(F)cc2)cn1` [1-(4-Fluorophenyl)-1H-pyrazolo[3,4-c]pyridine-4-carboxylic acid [6-(dimethylamino-sulfonylamino)-pyridin-3-ylmethyl]-amide]: the IC50 stood at 24 nM.
Regarding `CN1CCN(S(=O)(=O)Cc2ccc(CNC(=O)c3cncc4c3cnn4-c3ccc(F)cc3)cc2)CC1` [1-(4-Fluorophenyl)-1H-pyrazolo[3,4-c]pyridine-4-carboxylic acid 4-(4-methyl-piperazine-1-sulfonylmethyl)-benzylamide], the IC50 came to 39 nM.
To `NC(=O)CNS(=O)(=O)c1ccc(CNC(=O)c2cncc3c2cnn3-c2ccc(F)cc2)cc1` [1-(4-Fluorophenyl)-1H-pyrazolo[3,4-c]pyridine-4-carboxylic acid 4-(carbamoylmethyl-sulfamoyl)-benzylamide] belongs 22 nM; to `CCC[C@H](NC(=O)c1cncc2c1cnn2-c1ccc(F)cc1)c1cncc(Br)c1` [1-(4-Fluorophenyl)-1H-pyrazolo[3,4-c]pyridine-4-carboxylic acid [(S)-1-(5-bromopyridin-3-yl)-butyl]-amide], 0.2 nM; to `O=C(NCc1ccc(S(=O)(=O)NCCO)cc1)c1cncc2c1cnn2-c1ccc(F)cc1` [1-(4-Fluorophenyl)-1H-pyrazolo[3,4-c]pyridine-4-carboxylic acid 4-(2-hydroxy-ethylsulfamoyl)-benzylamide], 1 nM.
Under `CC[C@H](NC(=O)c1cncc2c1cnn2-c1ccc(Cl)cc1)c1cncc(S(C)(=O)=O)c1` [1-(4-Chlorophenyl)-1H-pyrazolo[3,4-c]pyridine-4-carboxylic acid [(S)-1-(5-methanesulfonyl-pyridin-3-yl)-propyl]-amide] stands 0.4 nM; under `CC(C)(CO)NS(=O)(=O)c1ccc(CNC(=O)c2cncc3c2cnn3-c2ccc(F)cc2)cc1` [1-(4-Fluorophenyl)-1H-pyrazolo[3,4-c]pyridine-4-carboxylic acid 4-(2-hydroxy-1,1-dimethyl-ethylsulfamoyl)-benzylamide], 0.9 nM.
To `CCC[C@H](NC(=O)c1cncc2c1cnn2-c1ccc(F)cc1)c1cncc(S(N)(=O)=O)c1` [1-(4-Fluorophenyl)-1H-pyrazolo[3,4-c]pyridine-4-carboxylic acid [(S)-1-(5-sulfamoyl-pyridin-3-yl)-butyl]-amide] belongs 0.3 nM; to `CN(CCO)S(=O)(=O)c1ccc(CNC(=O)c2cncc3c2cnn3-c2ccc(F)cc2)cc1` [1-(4-Fluorophenyl)-1H-pyrazolo[3,4-c]pyridine-4-carboxylic acid 4-[(2-hydroxy-ethyl)-methyl-sulfamoyl]-benzylamide], 1 nM.
As to `CC(NC(=O)c1cncc2c1cnn2-c1ccc(F)cc1)c1ccnc(Br)c1` (centres unmarked) [1-(4-Fluorophenyl)-1H-pyrazolo[3,4-c]pyridine-4-carboxylic acid [1-(2-bromopyridin-4-yl)-ethyl]-amide], the IC50 came to 1 nM.
To `O=C(NCc1cc(C(F)(F)F)cc(C(F)(F)F)c1)c1cncc2c1cnn2-c1ccc(F)cc1` [1-(4-Fluorophenyl)-1H-pyrazolo[3,4-c]pyridine-4-carboxylic acid 3,5-bis-trifluoromethyl-benzylamide] belongs 3 nM; to `CCC(NC(=O)c1cncc2c1cnn2-c1ccc(F)cc1)c1ccnc(Br)c1` (centres unmarked) [1-(4-Fluorophenyl)-1H-pyrazolo[3,4-c]pyridine-4-carboxylic acid [1-(2-bromopyridin-4-yl)-propyl]-amide], 0.4 nM.
In the case of `CN(C)S(=O)(=O)c1ccc(CNC(=O)c2cncc3c2cnn3-c2ccc(F)cc2)cn1` [1-(4-Fluorophenyl)-1H-pyrazolo[3,4-c]pyridine-4-carboxylic acid (6-dimethylsulfamoyl-pyridin-3-ylmethyl)-amide], the IC50 worked out at 1 nM.
To `CCC[C@H](NC(=O)c1cncc2c1cnn2-c1ccc(F)cc1)c1cncc(S(=O)(=O)CCC(=O)OC)c1` [3-[5-((S)-1-{[1-(4-Fluorophenyl)-1H-pyrazolo[3,4-c]pyridine-4-carbonyl]-amino}-butyl)-pyridine-3-sulfonyl]-propionic acid methyl ester] belongs 2 nM; to `C[C@H](NC(=O)c1cncc2c1cnn2-c1ccc(F)cc1)c1cccc(S(C)(=O)=O)n1` [1-(4-Fluorophenyl)-1H-pyrazolo[3,4-c]pyridine-4-carboxylic acid [(S)-1-(6-methanesulfonyl-pyridin-2-yl)-ethyl]-amide], 6 nM.
Turning to `CNS(=O)(=O)c1ccc(CNC(=O)c2cncc3c2cnn3-c2ccc(F)cc2)cc1OC` [1-(4-Fluorophenyl)-1H-pyrazolo[3,4-c]pyridine-4-carboxylic acid 3-methoxy-4-methylsulfamoyl-benzylamide], the IC50 was 3 nM.
Under `O=C(NCc1cc(Cl)cc(Cl)c1)c1cncc2c1cnn2-c1ccc(F)cc1` [1-(4-Fluorophenyl)-1H-pyrazolo[3,4-c]pyridine-4-carboxylic acid 3,5-dichloro-benzylamide] stands 7 nM; under `O=C(NCc1ccc(CS(=O)(=O)N2CCCCC2)cc1)c1cncc2c1cnn2-c1ccc(F)cc1` [1-(4-Fluorophenyl)-1H-pyrazolo[3,4-c]pyridine-4-carboxylic acid 4-(piperidine-1-sulfonylmethyl)-benzylamide], 6 nM; under `CN(C)C1CCN(S(=O)(=O)c2ccc(CNC(=O)c3cncc4c3cnn4-c3ccc(F)cc3)cc2)CC1` [1-(4-Fluorophenyl)-1H-pyrazolo[3,4-c]pyridine-4-carboxylic acid 4-(4-dimethylamino-piperidine-1-sulfonyl)-benzylamide], 3 nM.
Under `CCCC(NC(=O)c1cncc2c1cnn2-c1ccc(F)cc1)c1cncc(S(=O)(=O)NC)c1` (centres unmarked) [1-(4-Fluorophenyl)-1H-pyrazolo[3,4-c]pyridine-4-carboxylic acid [1-(5-methylsulfamoyl-pyridin-3-yl)-butyl]-amide] stands 0.5 nM.
Under `CS(=O)(=O)c1ccc(CNC(=O)c2cncc3c2cnn3-c2ccc(F)cc2)cc1O` [1-(4-Fluorophenyl)-1H-pyrazolo[3,4-c]pyridine-4-carboxylic acid 3-hydroxy-4-methanesulfonyl-benzylamide] stands 24 nM.

The term IC50 denotes the concentration needed to halve the response being measured.
